Consider 13 compounds from patent US8148373B2, “Compounds” (AstraZeneca AB, priority 2008, dated 2012).

Counter-ions that a name gives are not always drawn.

In assay [1] the target is T1, human muscarinic acetylcholine M3 receptor (M3-ACh) (Homo sapiens, UniProt P20309).
T1 construct: expressed in transfected cells; host or cells: CHO-K1 (Chinese Hamster Ovary) cell membranes
In words: Muscarinic 3 Receptor Binding Assay ([3H]NMS competition, SPA). The settings on record: for IC50: [3H]NMS 0.1 nM, CHO-K1 cell membranes, 16 hours at room temperature, read-out: M3 pIC50 (converted). An outline of the steps: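 Competition SPA binding of 0.1 nM [3H]NMS (quarter Kd) to membranes from CHO-K1 cells expressing human M3, in 20 mM HEPES pH 7.4, 5 mM MgCl2, 1% DMSO. Incubated 16 h at room temperature; non-specific binding with 1 µM atropine. pIC50 from 50% reduction of specific binding.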

Assay [2] has as its target T2, Adrenergic β2 (H292 cells) (Homo sapiens, UniProt P07550).
T2 construct: endogenous in cells; host or cells: H292 cells
The assay can be described thus: Assay for Adrenergic β2 Mediated cAMP Production (concentration response, AlphaScreen cAMP detection). In kind it is cell-based. The settings on record: for EC50: cAMP production, 60 minutes at room temperature, 300 μM rolipram, read-out: β2 pEC50 (converted); for β2 Intrinsic activity: fraction relative to the maximum activity determined for formoterol. Summed up:
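H292 cells plated overnight, pre-treated with rolipram (300 μM final) 10 min, then compound 60 min at room temperature in HBSS/10 mM HEPES pH7.4/5 mM glucose, 1% DMSO. Lysate cAMP read by AlphaScreen against a cAMP standard curve; 4-parameter fit gives pEC50 and intrinsic activity as fraction of formoterol maximum.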

T1 sequence (P20309 whole entry): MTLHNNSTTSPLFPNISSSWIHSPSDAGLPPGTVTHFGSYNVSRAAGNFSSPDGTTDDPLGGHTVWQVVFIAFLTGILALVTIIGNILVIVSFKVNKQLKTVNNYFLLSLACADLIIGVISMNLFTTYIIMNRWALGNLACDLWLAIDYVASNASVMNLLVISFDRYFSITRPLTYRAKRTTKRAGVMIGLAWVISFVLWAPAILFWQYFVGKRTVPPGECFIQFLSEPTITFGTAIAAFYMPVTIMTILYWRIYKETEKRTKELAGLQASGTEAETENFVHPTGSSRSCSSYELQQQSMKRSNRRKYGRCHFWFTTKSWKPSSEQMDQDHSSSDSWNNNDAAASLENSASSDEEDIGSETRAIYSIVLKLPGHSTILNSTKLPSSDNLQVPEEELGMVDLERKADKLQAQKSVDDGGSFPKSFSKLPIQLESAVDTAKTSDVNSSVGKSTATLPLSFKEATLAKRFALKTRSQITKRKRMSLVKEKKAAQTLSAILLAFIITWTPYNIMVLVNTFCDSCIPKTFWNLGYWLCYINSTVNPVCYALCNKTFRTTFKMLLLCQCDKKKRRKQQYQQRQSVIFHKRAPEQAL
T2 sequence (P07550 whole entry): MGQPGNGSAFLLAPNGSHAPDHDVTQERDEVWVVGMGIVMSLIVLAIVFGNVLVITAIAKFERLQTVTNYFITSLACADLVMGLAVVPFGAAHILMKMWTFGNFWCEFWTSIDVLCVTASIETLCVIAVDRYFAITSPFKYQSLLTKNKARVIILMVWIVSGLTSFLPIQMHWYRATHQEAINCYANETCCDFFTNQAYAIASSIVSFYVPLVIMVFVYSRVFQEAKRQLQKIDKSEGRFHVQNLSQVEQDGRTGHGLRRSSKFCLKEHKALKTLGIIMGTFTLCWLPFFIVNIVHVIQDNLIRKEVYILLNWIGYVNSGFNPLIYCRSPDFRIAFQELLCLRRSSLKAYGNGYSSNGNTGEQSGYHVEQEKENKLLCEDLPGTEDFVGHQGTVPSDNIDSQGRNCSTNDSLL

On to `Cc1nc(C(=O)N2CCOC3(CCN(CCc4ccc(CCNC[C@H](O)c5ccc(O)c6[nH]c(=O)sc56)cc4)CC3)C2)cs1` [Example 5, (R)-4-Hydroxy-7-(1-hydroxy-2-(4-(2-(4-(2-methylthiazole-4-carbonyl)-1-oxa-4,9-diazaspiro[5.5]undecan-9-yl)ethyl)phenethylamino)ethyl)benzo[d]thiazol-2(3H)-one ditrifluoroacetate], for which the IC50 in assay [1] is 2.51 nM. Moreover, in assay [2], the EC50 was 79.4 nM and the “β2 Intrinsic activity” value came to 0.9.
For the compound `Cc1nc(C(=O)N2CCOC3(CCN(CCOc4cccc(CCNC[C@H](O)c5ccc(O)c6[nH]c(=O)sc56)c4)CC3)C2)cs1` [Example 24, (R)-4-Hydroxy-7-(1-hydroxy-2-(3-(2-(4-(2-methylthiazole-4-carbonyl)-1-oxa-4,9-diazaspiro[5.5]undecan-9-yl)ethoxy)phenethylamino)ethyl)benzo[d]thiazol-2(3H)-one ditrifluoroacetate], the IC50 in assay [1] is 25.1 nM. Further, in assay [2], the EC50 is 5.01 nM and the “β2 Intrinsic activity” value came to 1.
The like results for `O=C(c1nc2ccccc2s1)N1CCOC2(CCN(CCOc3ccc(CNC[C@H](O)c4ccc(O)c5[nH]c(=O)sc45)cc3)CC2)C1` [Example 106, (R)-7-(2-(4-(2-(4-(Benzo[d]thiazole-2-carbonyl)-1-oxa-4,9-diazaspiro[5.5]undecan-9-yl)ethoxy)benzylamino)-1-hydroxyethyl)-4-hydroxybenzo[d]thiazol-2(3H)-one formate] were, in that order, 200 nM, 100 nM and 0.8.
Regarding `Cc1nc(C(=O)N2CC(C)(C)OC3(CCN(Cc4cccc(CCNC[C@H](O)c5ccc(O)c6[nH]c(=O)sc56)c4)CC3)C2)cs1` [Example 271, (R)-7-(2-(3-((2,2-Dimethyl-4-(2-methylthiazole-4-carbonyl)-1-oxa-4,9-diazaspiro[5.5]undecan-9-yl)methyl)phenethylamino)-1-hydroxyethyl)-4-hydroxybenzo[d]thiazol-2(3H)-one ditrifluoroacetate], in assay [1] (read-out: M3 inhibtion at 1 μM (printed in the M3 pIC50 column)), the inhibition at 1 µM came out at 30%. For the same compound, in assay [2], the EC50 was 6.31 nM and the “β2 Intrinsic activity” value worked out at 1.
Turning to `COC(=O)c1ccc(C(=O)N2CCOC3(CCN(Cc4cccc(CCNC[C@H](O)c5ccc(O)c6[nH]c(=O)ccc56)c4)CC3)C2)s1` [Example 31, (R)-Methyl 5-(9-(3-(2-(2-hydroxy-2-(8-hydroxy-2-oxo-1,2-dihydroquinolin-5-yl)ethylamino)ethyl)benzyl)-1-oxa-4,9-diazaspiro[5.5]undecane-4-carbonyl)thiophene-2-carboxylate ditrifluoroacetate], the IC50 in assay [1] was 63.1 nM. Besides, in assay [2], the EC50 is 5.01 nM and the “β2 Intrinsic activity” value is on record as 0.9.
For `CC(C)c1nc(C(=O)N2CCOC3(CCN(CCC[S+]([O-])CCCCNC[C@H](O)c4ccc(O)c5[nH]c(=O)sc45)CC3)C2)cs1` (stereo partly drawn) [Example 282, 4-Hydroxy-7-((1R)-1-hydroxy-2-(4-(3-(4-(2-isopropylthiazole-4-carbonyl)-1-oxa-4,9-diazaspiro[5.5]undecan-9-yl)propylsulfinyl)butylamino)ethyl)benzo[d]thiazol-2(3H)-one formate], the IC50 in assay [1] was 20 nM. Also, in assay [2], the EC50 was 50.1 nM and the “β2 Intrinsic activity” value was determined as 1.
As for `CC(C)c1csc(C(=O)N2CCOC3(CCN(Cc4cccc(CCNC[C@H](O)c5ccc(O)c6[nH]c(=O)ccc56)c4)CC3)C2)n1` [Example 76, (R)-8-Hydroxy-5-(1-hydroxy-2-(3-((4-(4-isopropylthiazole-2-carbonyl)-1-oxa-4,9-diazaspiro[5.5]undecan-9-yl)methyl)phenethylamino)ethyl)quinolin-2(1H)-one ditrifluoroacetate], the IC50 in assay [1] is 2 nM. Besides, in assay [2], the EC50 is 31.6 nM and the “β2 Intrinsic activity” value stood at 0.9.
On to `CCc1cc(C(=O)N2CCOC3(CCN(Cc4cc(F)cc(CCNC[C@H](O)c5ccc(O)c6[nH]c(=O)sc56)c4)CC3)C2)cs1` [Example 93, (R)-7-(2-(3-((4-(5-Ethylthiophene-3-carbonyl)-1-oxa-4,9-diazaspiro[5.5]undecan-9-yl)methyl)-5-fluorophenethylamino)-1-hydroxyethyl)-4-hydroxybenzo[d]thiazol-2(3H)-one ditrifluoroacetate], for which the IC50 in assay [1] was 2.51 nM. Also, in assay [2], the EC50 was 2.51 nM and the “β2 Intrinsic activity” value stood at 0.8.
In the case of `CC(C)Cc1nc(C(=O)N2CCOC3(CCN(Cc4cccc(CCNC[C@H](O)c5ccc(O)c6[nH]c(=O)sc56)c4F)CC3)C2)cs1` [Example 72, (R)-7-(2-(2-Fluoro-3-((4-(2-isobutylthiazole-4-carbonyl)-1-oxa-4,9-diazaspiro[5.5]undecan-9-yl)methyl)phenethylamino)-1-hydroxyethyl)-4-hydroxybenzo[d]thiazol-2(3H)-one ditrifluoroacetate], in assay [1], the IC50 is 10 nM. Further, in assay [2], the EC50 is 7.94 nM and the “β2 Intrinsic activity” value was 0.8.
`CC(C)c1nc(C(=O)N2CCOC3(CCN(CCOc4ccc(CCNC[C@H](O)c5ccc(O)c6[nH]c(=O)ccc56)c(F)c4F)CC3)C2)cs1` [Example 77, (R)-5-(2-(2,3-Difluoro-4-(2-(4-(2-isopropylthiazole-4-carbonyl)-1-oxa-4,9-diazaspiro[5.5]undecan-9-yl)ethoxy)phenethylamino)-1-hydroxyethyl)-8-hydroxyquinolin-2(1H)-one ditrifluoroacetate]: the IC50 in assay [1] was 2.51 nM. For the same compound, in assay [2], the EC50 is 79.4 nM and the “β2 Intrinsic activity” value turned out to be 1.
`CC(C)c1nc(C(=O)N2CCOC3(CCN(Cc4ccc(F)c(CCNC[C@H](O)c5ccc(O)c6[nH]c(=O)sc56)c4F)CC3)C2)cs1` [Example 45, (R)-7-(2-(2,6-Difluoro-3-((4-(2-isopropylthiazole-4-carbonyl)-1-oxa-4,9-diazaspiro[5.5]undecan-9-yl)methyl)phenethylamino)-1-hydroxyethyl)-4-hydroxybenzo[d]thiazol-2(3H)-one ditrifluoroacetate]: in assay [1], the IC50 was 5.01 nM. In addition, in assay [2], the EC50 is 10 nM and the “β2 Intrinsic activity” value was determined as 0.8.
The matching figures for `CC(C)c1nc(C(=O)N2CCOC3(CCN(Cc4ccc(F)c(CCNC[C@H](O)c5ccc(O)c6[nH]c(=O)ccc56)c4F)CC3)C2)cs1` [Example 46, (R)-5-(2-(2,6-Difluoro-3-((4-(2-isopropylthiazole-4-carbonyl)-1-oxa-4,9-diazaspiro[5.5]undecan-9-yl)methyl)phenethylamino)-1-hydroxyethyl)-8-hydroxyquinolin-2(1H)-one ditrifluoroacetate]: 6.31 nM, 79.4 nM and 1.
Take `O=C(c1nc2ccccc2s1)N1CCOC2(CCN(CCCCCCCCCNC[C@H](O)c3ccc(O)c4[nH]c(=O)sc34)CC2)C1` [Example 107, (R)-7-(2-(9-(4-(Benzo[d]thiazole-2-carbonyl)-1-oxa-4,9-diazaspiro[5.5]undecan-9-yl)nonylamino)-1-hydroxyethyl)-4-hydroxybenzo[d]thiazol-2(3H)-one formate]: the IC50 in assay [1] is 6.31 nM. Also, in assay [2], the EC50 was 39.8 nM and the “β2 Intrinsic activity” value was 0.9.
